Consider 3 molecules from patent US20130190407A1, “CALCIUM RECEPTOR-ACTIVE MOLECULES” (NPS Pharmaceuticals, Inc., priority 1991, published 2013).

Where only a bound is given, the exact number is not on record here.

Common to all, as to type: cell-based
One experiment concerns the target T1, C-cell calcium receptor (Rattus norvegicus, UniProt P48442).
T1 construct: cultured cell lines expressing the C-cell phenotype (e.g., rat medullary thyroid carcinoma cells; rMTC 6-23 cells); host or cells: rMTC 6-23 rat medullary thyroid carcinoma cells
T1 sequence (P48442 20-1079): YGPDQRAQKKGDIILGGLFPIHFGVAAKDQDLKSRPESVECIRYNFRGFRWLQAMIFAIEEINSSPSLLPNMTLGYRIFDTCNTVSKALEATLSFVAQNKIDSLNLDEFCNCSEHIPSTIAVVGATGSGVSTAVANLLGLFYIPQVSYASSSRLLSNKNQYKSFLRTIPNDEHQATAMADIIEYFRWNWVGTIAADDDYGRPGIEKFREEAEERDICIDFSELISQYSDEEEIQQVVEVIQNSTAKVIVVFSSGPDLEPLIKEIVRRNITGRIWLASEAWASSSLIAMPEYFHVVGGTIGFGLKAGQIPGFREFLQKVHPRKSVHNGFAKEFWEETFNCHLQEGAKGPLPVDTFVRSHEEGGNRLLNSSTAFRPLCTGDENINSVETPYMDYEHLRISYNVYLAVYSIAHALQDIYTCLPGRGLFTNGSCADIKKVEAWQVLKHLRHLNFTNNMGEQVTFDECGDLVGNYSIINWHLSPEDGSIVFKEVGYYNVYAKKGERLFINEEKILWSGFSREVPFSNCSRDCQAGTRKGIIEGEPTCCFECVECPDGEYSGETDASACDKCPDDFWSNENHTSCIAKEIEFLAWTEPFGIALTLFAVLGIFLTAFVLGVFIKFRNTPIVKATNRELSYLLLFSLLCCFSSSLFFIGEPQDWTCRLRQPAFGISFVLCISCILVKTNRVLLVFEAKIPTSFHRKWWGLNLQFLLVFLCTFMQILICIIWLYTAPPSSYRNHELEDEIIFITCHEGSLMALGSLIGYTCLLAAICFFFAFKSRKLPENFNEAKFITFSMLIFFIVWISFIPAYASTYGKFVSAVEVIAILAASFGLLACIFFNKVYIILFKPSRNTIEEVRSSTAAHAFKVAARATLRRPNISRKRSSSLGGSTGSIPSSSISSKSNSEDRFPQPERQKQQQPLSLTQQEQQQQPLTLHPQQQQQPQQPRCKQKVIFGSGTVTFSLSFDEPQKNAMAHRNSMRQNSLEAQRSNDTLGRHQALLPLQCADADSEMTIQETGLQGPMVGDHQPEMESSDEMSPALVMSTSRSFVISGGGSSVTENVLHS
Briefly: [Ca2+]i in rat medullary thyroid carcinoma C-cell line (44-2 cells). The note with it: 1 mM extracellular Ca2+, read-out: EC50 for increase in [Ca2+]i. The text has this:
C-cells appear to express a calcium receptor that is structurally similar to that present on parathyroid cells (see Example 31). […] Thus, compounds in this structural series appear to activate the C-cell calcium receptor.

Experiment [1] has as its target T2, parathyroid cell calcium receptor (Bos taurus, UniProt P35384).
T2 sequence (P35384 20-1085): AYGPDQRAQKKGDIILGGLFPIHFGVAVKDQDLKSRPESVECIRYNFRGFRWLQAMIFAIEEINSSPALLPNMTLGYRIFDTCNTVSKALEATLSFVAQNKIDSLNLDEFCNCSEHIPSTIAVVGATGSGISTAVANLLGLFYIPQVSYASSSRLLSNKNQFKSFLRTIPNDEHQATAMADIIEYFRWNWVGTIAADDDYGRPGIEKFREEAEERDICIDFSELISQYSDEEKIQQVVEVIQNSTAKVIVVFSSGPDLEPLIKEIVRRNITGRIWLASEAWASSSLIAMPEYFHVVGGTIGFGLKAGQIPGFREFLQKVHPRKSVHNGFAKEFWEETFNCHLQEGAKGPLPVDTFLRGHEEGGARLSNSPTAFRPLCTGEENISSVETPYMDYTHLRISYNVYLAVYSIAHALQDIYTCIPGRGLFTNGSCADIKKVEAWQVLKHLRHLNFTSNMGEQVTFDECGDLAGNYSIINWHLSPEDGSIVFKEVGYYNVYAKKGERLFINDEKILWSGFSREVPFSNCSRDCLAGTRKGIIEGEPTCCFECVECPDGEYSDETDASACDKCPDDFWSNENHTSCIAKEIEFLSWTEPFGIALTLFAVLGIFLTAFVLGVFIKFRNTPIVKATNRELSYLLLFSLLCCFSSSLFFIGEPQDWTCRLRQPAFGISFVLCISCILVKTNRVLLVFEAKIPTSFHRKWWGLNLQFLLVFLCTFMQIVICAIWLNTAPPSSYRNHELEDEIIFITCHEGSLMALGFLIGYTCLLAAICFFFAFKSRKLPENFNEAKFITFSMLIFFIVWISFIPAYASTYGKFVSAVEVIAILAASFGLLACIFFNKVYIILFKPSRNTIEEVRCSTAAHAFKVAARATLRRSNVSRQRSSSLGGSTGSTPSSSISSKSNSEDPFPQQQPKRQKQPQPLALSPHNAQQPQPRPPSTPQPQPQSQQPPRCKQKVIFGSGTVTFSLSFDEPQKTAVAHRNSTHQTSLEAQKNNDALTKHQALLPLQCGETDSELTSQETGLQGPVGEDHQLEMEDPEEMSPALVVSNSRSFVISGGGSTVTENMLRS
The experiment is described as follows: Mobilization of intracellular Ca2+ ([Ca2+]i, fura-2) in bovine parathyroid cells. On the set-up: Parathyroid glands were obtained from freshly slaughtered calves (12-15 weeks old); endogenous in cells; host or cells: dissociated primary bovine (calf) parathyroid cells. The note with it: EC50 for mobilization of intracellular Ca2+; bovine parathyroid cells.
Description: This section describes procedures used to obtain and treat parathyroid cells from calves and humans. […] Human parathyroid glands, were obtained from patients undergoing surgical removal of parathyroid tissue for primary or uremic hyperparathyroidism (uremic HPT), and were treated similarly to bovine tissue.
Glands were trimmed of excess fat and connective tissue and then minced with fine scissors into cubes approximately 2-3 mm on a side. Dissociated parathyroid cells were prepared by collagenase digestion and then purified by centrifugation in Percoll buffer. The resultant parathyroid cell preparation was essentially devoid of red blood cells, adipocytes, and capillary tissue as assessed by phase contrast microscopy and Sudan black B staining. Dissociated and purified parathyroid cells were present as small clusters containing 5 to 20 cells.
The cells were then pelleted, resuspended in the same buffer, but lacking the ester, and incubated a further 15 minutes at 37° C. The cells were subsequently washed twice with PCB containing 0.5 mM CaCl2 and 0.5% BSA and maintained at room temperature (about 20° C.) Immediately before use, the cells were diluted five-fold with prewarmed 0.5 mM CaCl2-PCB to obtain a final BSA concentration of 0.1%. The concentration of cells in the cuvette used for fluorescence recording was 1−2×10^6/ml.
The fluorescence of indicator-loaded cells was measured at 37° C. in a spectrofluorimeter (Biomedical Instrumentation Group, University of Pennsylvania, Philadelphia, Pa.) equipped with a thermostated cuvette holder and magnetic stirrer using excitation and emission wavelengths of 340 and 510 nm, respectively. […] Leakage of dye is dependent on temperature and most occurs within the first 2 minutes after warming the cells in the cuvette. Dye leakage increases only very slowly thereafter. To correct the calibration for dye leakage, cells were placed in the cuvette and stirred at 37° C. for 2-3 minutes. The cell suspension was then removed, the cells pelleted, and the supernatant returned to a clean cuvette. […] This estimate was subtracted from the apparent Fmin.

Experiment [2] has as its target T3, bovine parathyroid cell calcium receptor (Bos taurus, UniProt P35384).
T3 construct: isolation of a single clone (BoPCaR 1) with a cDNA insert of 5.3 kb; expressed in transfected cells
T3 sequence (P35384 20-1085): T2 sequence (P35384 20-1085)
The experiment is described as follows: Cl- current in Xenopus oocytes injected with BoPCaR 1. Here is the method:
Several pharmacological and biochemical criteria were used to identify this clone as encoding a bona fide bovine parathyroid Ca^2+ receptor. […] These responses increased markedly over a period of one to four days after injection of the eggs with cRNA prepared from the BoPCaR 1 cDNA. Furthermore, the ranges of the concentrations of the two cations eliciting this response were very similar to those shown previously to act on bovine parathyroid cells in vitro.
Xenopus oocytes were injected with BoPCaR 1, the 5.3 Kb cDNA encoding a bovine parathyroid cell calcium receptor as described in Example 25. After two to three days, Cl^− currents were examined in the oocytes using a two-electrode voltage clamp.
Xenopus oocytes were injected with BoPCaR 1 as described in Example 25. After two to three days, Cl^− currents were examined in the oocytes using two electrode voltage clamp.

One may read the EC50 as the concentration needed to bring the measured effect to its halfway point.

Take `COc1cccc([C@@H](C)NCCCc2ccccc2)c1` (single isomer, unassigned) [NPS R-467]: the half-maximal effective concentration (EC50) at C-cell calcium receptor is 1900 nM; in experiment [1] it was less than 5000 nM.
For the molecule `COc1cccc([C@@H](C)NCCCc2ccccc2Cl)c1` [NPS R-568, (R)-(+)-N-[3-(2-chlorophenyl)propyl]-α-methyl-3-methoxybenzylamine], the EC50 in experiment [2] (0.3 or 1 mM extracellular Ca2+, read-out: EC50 for increases in Cl- current) is roughly 3000 nM; at C-cell calcium receptor, 2200 nM; in experiment [1], less than 5000 nM.
In the case of `NC[C@@H]1O[C@H](O[C@H]2[C@@H](O)[C@H](O[C@@H]3[C@@H](O)[C@H](N)C[C@H](N)[C@H]3O[C@H]3O[C@H](CN)[C@@H](O)[C@H](O)[C@H]3N)O[C@@H]2CO)[C@H](N)[C@@H](O)[C@@H]1O` [Neomycin B, neomycin B], in experiment [2], the “concentrations producing changes in Cl- current” value lay within 20 to 100 µM.
